Results from patent US7754741B2, “Pyridine derivatives as fungicidal compounds” (Bayer Cropscience S.A., priority 2003, dated 2010).

Tests used:
Alternaria brassicae = test: In vivo test on Alternaria brassicae (leaf spot of crucifers); settings: Alternaria brassicae; dose 330 ppm; radish plants sprayed 24 hours before contamination; grading 6 to 7 days after contamination vs control plants; read-out: protection (good (at least 50%) to total)
Protocol: In Vivo Test on Alternaria brassicae (Leaf Spot of crucifers)
(§1) The active ingredient tested is prepared by potter homogenisation in a concentrated suspension type formulation at 100 g/l. This suspension is then diluted with water to obtain the desired active material concentration.
Radish plants (Pernot variety) in starter cups, sown on a 50/50 peat soil-pozzolana substrate and grown at 18-20° C., are treated at the cotyledon stage by spraying with the aqueous suspension described above.
(§2) Plants, used as controls, are treated with an aqueous solution not containing the active material.
After 24 hours, the plants are contaminated by spraying them with an aqueous suspension of Alternaria brassicae spores (40,000 spores per cm^3). The spores are collected from a 12-13-day-old culture.
The contaminated radish plants are incubated for 6-7 days at about 18° C., under a humid atmosphere.
Grading is carried out 6 to 7 days after the contamination, in comparison with the control plants.

[1] = tested on: Erysiphe graminis f. sp. tritici; test: In vivo test on Erysiphe graminis f. sp. tritici (wheat powdery mildew); settings: Blumeria graminis, wheat plants sprayed 24 hours before contamination, grading 7 to 14 days after contamination vs control plants, read-out: protection (good (at least 50%) to total)
Protocol: In Vivo Test on Erysiphe graminis f. sp. tritici (Wheat Powdery Mildew)
as §1
Wheat plants (Audace variety) in starter cups, sown on 50/50 peat soil-pozzolana substrate and grown at 12° C., are treated at the 1-leaf stage (10 cm tall) by spraying with the aqueous suspension described above.
as §2
After 24 hours, the plants are contaminated by dusting them with Erysiphe graminis f. sp. tritici spores, the dusting being carried out using diseased plants. Grading is carried out 7 to 14 days after the contamination, in comparison with the control plants.
Under these conditions, good (at least 50%) to total protection is observed at a dose of 330 ppm with the following compounds: A-4, B-4, B-8, C-2, C-3, C-12, D-4, F-1, H-1, H-2, H-4, H-20, I-3, J-1, J-2, J-3, J-19, J-20, J-31, J-37, J-40, J-55, J-57, J-58, J-59, J-61, K-1, M-5, M-6, R-1, R-10, R-26, R-29, V-7.

Pyrenophora teres = test: In vivo test on Pyrenophora teres (barley net blotch); settings: Pyrenophora teres, 288 h; dose 330 ppm; barley plants sprayed 24 hours before contamination; grading 12 days after contamination vs control plants; read-out: protection (good (at least 50%) to total)
Protocol: In Vivo Test on Pyrenophora teres (Barley Net Blotch)
as §1
(§3) Barley plants (Express variety) in starter cups, sown on a 50/50 peat soil-pozzolana substrate and grown at 12° C., are treated at the 1-leaf stage (10 cm tall) by spraying with the aqueous suspension described above. Plants, used as controls, are treated with an aqueous solution not containing the active material.
After 24 hours, the plants are contaminated by spraying them with an aqueous suspension of Pyrenophora teres spores (12,000 spores per ml). The spores are collected from a 12-day-old culture The contaminated barley plants are incubated for 24 hours at about 20° C. and at 100% relative humidity, and then for 12 days at 80% relative humidity.

Botrytis cinerea = test: In vivo test on Botrytis cinerea (cucumber grey mould); settings: Botrytis cinerea; dose 330 ppm; cucumber plants sprayed 24 hours before contamination; grading 5/7 days after contamination vs control plants; read-out: protection (good (at least 50%) to total)
Protocol: In Vivo Test on Botrytis cinerea (Cucumber Grey Mould)
as §1
as §3, with “Cucumber” for “Barley”, “(Marketer” for “(Express”, “18-20°” for “12°”, “cotyledon Z11” for “1-leaf”, “stage” for “stage (10 cm tall)”
After 24 hours, the plants are contaminated by depositing drops of an aqueous suspension of Botrytis cinerea spores (150,000 spores per ml) on upper surface of the leaves. The spores are collected from a 15-day-old culture and are suspended in a nutrient solution composed of: • 20 g/L of gelatin • 50 g/L of cane sugar • 2 g/L of NH4NO3 • 1 g/L of KH2PO4
The contaminated cucumber plants are settled for 5/7 days in a climatic room at 15-11° C. (day/night) and at 80% relative humidity.
Grading is carried out 5/7 days after the contamination, in comparison with the control plants. Under these conditions, good (at least 50%) to total protection is observed at a dose of 330 ppm with the following compounds :B-7, B-8, B-13, B-14, C-3, C-12, C-13, C-14, C-15, C-16, D-4, D-5, E-4, H-1, H-2, H-4, H-7, H-9, H-22, J-1, J-2, J-3, J-19, J-31, J-32, J-33, J-34, J-35, J-37, J-39, J-43, J-44, R-1, R-10, R-23, R-24, R-26, R-31, V-1, V-8.

Measured: pest or weed control at 330 ppm

O=C(NCCc1ncc(C(F)(F)F)cc1Cl)c1occc1Br [Compound A-4]
≥ 50%: Alternaria brassicae | [1] | Pyrenophora teres

Cc1oc(C(C)(C)C)cc1C(=O)NCCc1ncc(C(F)(F)F)cc1Cl [Compound B-4]
≥ 50%: Alternaria brassicae | [1]

Cc1cc(C(=O)NCCc2ncc(C(F)(F)F)cc2Cl)c(C)o1 [Compound B-7]
≥ 50%: Alternaria brassicae | Botrytis cinerea | Pyrenophora teres

Cc1cc(C(=O)NCCc2ncc(C(F)(F)F)cc2Cl)c(C(F)(F)F)o1 [Compound B-8]
≥ 50%: Alternaria brassicae | [1] | Botrytis cinerea | Pyrenophora teres

Cc1occc1C(=O)NCCc1ncc(Cl)cc1Cl [Compound B-13]
≥ 50%: Alternaria brassicae | Botrytis cinerea | Pyrenophora teres

O=C(NCCc1ncc(C(F)(F)F)cc1Cl)c1ccoc1I [Compound B-14]
≥ 50%: Alternaria brassicae | Botrytis cinerea | Pyrenophora teres

O=C(NCCc1ncc(C(F)(F)F)cc1Cl)c1sccc1Cl [Compound C-2]
≥ 50%: Alternaria brassicae | [1]

Cc1ccsc1C(=O)NCCc1ncc(C(F)(F)F)cc1Cl [Compound C-3]
≥ 50%: Alternaria brassicae | [1] | Botrytis cinerea | Pyrenophora teres

O=C(NCCc1ncc(C(F)(F)F)cc1Cl)c1sccc1I [Compound C-12]
≥ 50%: Alternaria brassicae | [1] | Botrytis cinerea | Pyrenophora teres

O=C(NCCc1ncc(Cl)cc1Cl)c1sccc1I [Compound C-13]
≥ 50%: Alternaria brassicae | Botrytis cinerea | Pyrenophora teres

O=C(NCCc1ncc(Cl)cc1F)c1sccc1I [Compound C-15]
≥ 50%: Botrytis cinerea | Pyrenophora teres

O=C(NCCc1ncc(Cl)cc1Br)c1sccc1I [Compound C-16]
≥ 50%: Alternaria brassicae | Botrytis cinerea | Pyrenophora teres

O=C(NCCc1ncc(C(F)(F)F)cc1Cl)c1ccsc1I [Compound D-4]
≥ 50%: Alternaria brassicae | [1] | Botrytis cinerea | Pyrenophora teres

Cc1cscc1C(=O)NCCc1ncc(C(F)(F)F)cc1Cl [Compound D-5]
≥ 50%: Alternaria brassicae | Botrytis cinerea | Pyrenophora teres

Cn1cccc1C(=O)NCCc1ncc(C(F)(F)F)cc1Cl [Compound F-1]
≥ 50%: [1]

CC1=[SH]C(C(=O)NCCc2ncc(Cl)cc2Cl)=C(C(F)(F)F)N1 [Compound H-4]
≥ 50%: Alternaria brassicae | [1] | Botrytis cinerea | Pyrenophora teres

Cn1nc(C(=O)NCCc2ncc(C(F)(F)F)cc2Cl)c(Br)c1[N+](=O)[O-] [Compound I-3]
≥ 50%: Alternaria brassicae | [1] | Pyrenophora teres

Cc1nn(C)c(F)c1C(=O)NCCc1ncc(C(F)(F)F)cc1Cl [Compound J-1]
≥ 50%: Alternaria brassicae | [1] | Botrytis cinerea | Pyrenophora teres
